Test results published in patent publication US20150087053A1, “COMPOSITIONS AND METHODS FOR INCREASING THE EXPRESSION AND SIGNALLING OF PROTEINS ON CELL SURFACES” (THE JOHNS HOPKINS UNIVERSITY, priority 2013, published 2015).
Entries after “also recorded” stand apart in the source; their conditions may differ.

What was measured:
mOREG = molecular target: T1, mOREG (Mus musculus, UniProt Q920P2); assay: CRE luciferase reporter assay (Firefly:Renilla ratio), mOREG constructs; assay type: cell-based, murine; conditions: Rho-mOREG, Lucy-mOREG, no RTP1S, 100-300 μM eugenol
T1 construct: The mOR-EG full-length construct, containing N-terminal Flag/Rho tags; only in the L-EG and L-R-EG constructs) (N, cleaved yes); expressed in transfected cells; host or cells: HEK293T
T1 sequence (Q920P2 1-313): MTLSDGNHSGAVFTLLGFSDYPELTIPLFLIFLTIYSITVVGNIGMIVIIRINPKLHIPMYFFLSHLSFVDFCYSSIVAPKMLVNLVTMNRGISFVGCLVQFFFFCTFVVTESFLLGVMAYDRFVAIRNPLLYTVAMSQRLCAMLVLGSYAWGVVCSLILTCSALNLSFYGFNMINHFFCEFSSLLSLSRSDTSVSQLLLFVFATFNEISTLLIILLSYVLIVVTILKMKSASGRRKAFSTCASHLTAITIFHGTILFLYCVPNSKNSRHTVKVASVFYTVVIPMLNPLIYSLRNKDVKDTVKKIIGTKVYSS
Method: The luciferase assay was performed as previously described. Briefly, ORs were transfected into HEK293T cells along with constructs encoding for CREB-dependent luciferase (Firefly) and a constitutively expressed luciferase (Renilla). OR activation leads to a rise in cAMP which drives an increase in Firefly luciferase expression. Firefly activity is normalized to the activity of the Renilla luciferase to control for variation in cell number and transfection efficiency. Data were collected using a FLUOstar Omega automated platereader (BMG LabTech, Cary, N.C.). For some experiments, RTP1S was also transfected.
One-way ANOVA analysis followed by the Student-Newman Keuls test was performed on the luciferase reporter assay to compare the doses of isovaleric acid (0.1-5 mM) or eugenol (100-300 μM) to the non-treated control (0 μM). As each condition was performed in triplicate, the analyses were done with an n=3, and P values ≦0.05 were deemed significant. One-way ANOVE followed by Student-Newman Keuls was also used to analyze the surface expression data in FIG. 7. […]
As mOREG is one of the ORs that reach the cell surface under every condition tested, we expressed the OR with and without the Lucy and Rho tags and assessed its response to eugenol.

Olfr691 = molecular target: T2, Olfr691 (Mus musculus, UniProt Q8VGW5); assay: CRE luciferase reporter assay (Firefly:Renilla ratio), Olfr691 constructs; conditions: 0.1-5 mM isovaleric acid
T2 sequence (Q8VGW5 1-322): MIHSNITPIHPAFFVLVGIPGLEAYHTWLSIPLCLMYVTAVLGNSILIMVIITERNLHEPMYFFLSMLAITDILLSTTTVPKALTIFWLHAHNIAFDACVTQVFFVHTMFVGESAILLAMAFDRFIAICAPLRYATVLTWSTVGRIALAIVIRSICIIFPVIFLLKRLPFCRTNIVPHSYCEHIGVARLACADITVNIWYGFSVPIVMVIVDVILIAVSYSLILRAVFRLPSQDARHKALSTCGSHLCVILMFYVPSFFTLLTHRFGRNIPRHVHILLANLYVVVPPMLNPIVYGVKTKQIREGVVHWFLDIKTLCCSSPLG

SMILES	OR activation (Firefly:Renilla ratio) (mOREG)	OR activation (Firefly:Renilla ratio) (Olfr691; Lucy-Rho-Olfr691 with and without RTP1S)	OR activation (Firefly:Renilla ratio) (Olfr691; Rho-Olfr691 co-expressed with RTP1S)	OR activation (Firefly:Renilla ratio) (Olfr691; Rho-Olfr691 without RTP1S)
C=CCc1ccc(O)c(OC)c1 [eugenol]	all concentrations of eugenol significantly activated; also recorded: dose-dependent activation	–	–	–
CC(C)CC(=O)O [isovaleric acid]	–	responded to isovaleric acid in a dose-dependent manner	dose-dependent increase in the Firefly:Renilla ratio	no concentrations of isovaleric acid activated R-691; also recorded: not significantly activated at any concentration
